Assay results from US9193731B2, “Antimicrobial compounds and methods of making and using the same” (Melinta Therapeutics, Inc., priority 2009, dated 2015).

System: Escherichia coli strain ATCC25922
Assay: standard microdilution assay to determine minimum inhibitory concentrations (MICs)
Assay type: cell-based
Details: Escherichia coli strain ATCC25922, microdilution
How it was run: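 Broth microdilution MIC against E. coli ATCC25922, following CLSI protocols, typically in a 100 microliter final volume. Results reported as +/− relative to a 16 micrograms/ml cutoff.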

Compound	E. coli ATCC25922 MIC
CS(=O)(=O)NCc1cc(OCC(F)CN)cc(-c2cc3cn(-c4ccc(CNCCCNC(=N)N)cc4)c(=O)nc3[nH]2)c1 (stereo not drawn) [Compound 2037a]	− (a “−” indicates that the compound has an MIC value greater than 16 micrograms/ml)
Cc1cc([N+](=O)[O-])nn1CCCN(C1CCNCC1)S(=O)(=O)c1ccc(-c2cc3cn(-c4ccc(CNCCCNC(=N)N)cc4)c(=O)nc3[nH]2)cc1 [Compound 998]	+ (a “+” indicates that the compound has an MIC value of 16 micrograms/ml or less)
N=C(N)N[C@@H]1CCN(Cc2ccc(-n3cc4cc(-c5ccc(S(=O)(=O)N(CCCN6CCS(=O)(=O)CC6)C6CCNCC6)cc5)[nH]c4nc3=O)cc2)C1 [Compound 1222]	− (a “−” indicates that the compound has an MIC value greater than 16 micrograms/ml)
N=C(N)NCC(O)CNCc1ccc(-n2cc3cc(-c4ccc(S(=O)(=O)NC5CNC5)cc4)[nH]c3nc2=O)cc1 (stereo not drawn) [Compound 1416]	+ (a “+” indicates that the compound has an MIC value of 16 micrograms/ml or less)
N=C(N)NCCCNCc1ccc(-n2cc3cc(-c4cc(C(=O)N5CCC(C(N)=O)CC5)cc(N5CCNCC5)c4)[nH]c3nc2=O)cc1 [Compound 911]	− (a “−” indicates that the compound has an MIC value greater than 16 micrograms/ml)
CC(CN)CN1CCC(c2cc3cn(-c4ccc(CNCCCNC(=N)N)cc4)c(=O)nc3[nH]2)C1 (mixture of isomers) [Compound 2016a]	+ (a “+” indicates that the compound has an MIC value of 16 micrograms/ml or less)
N=C(N)NCCCNCc1ccc(-n2cc3cc(-c4ccc(S(=O)(=O)N(CC5CCOCC5)C5CCCNC5)cc4)[nH]c3nc2=O)cc1 (single isomer, unassigned) [Compound 845]	+ (a “+” indicates that the compound has an MIC value of 16 micrograms/ml or less)
NC(N)=NCCCNCc1ccc(-n2cc3cc(CCS(=O)(=O)CCNC4CCNCC4)[nH]c3nc2=O)cc1 [Compound 1251]	+ (a “+” indicates that the compound has an MIC value of 16 micrograms/ml or less)
N=C(N)N[C@@H]1CCCN(Cc2ccc(-n3cc4cc(-c5ccc(S(=O)(=O)NC6CCNCC6)cc5)[nH]c4nc3=O)cc2)C1 [Compound 1119]	+ (a “+” indicates that the compound has an MIC value of 16 micrograms/ml or less)
N=C(N)NCCCNCc1ccc(-n2cc3cc(-c4cccc(CCCN)c4)[nH]c3nc2=O)cc1 [Compound 1446]	+ (a “+” indicates that the compound has an MIC value of 16 micrograms/ml or less)

Same assay, conditions: Escherichia coli, ATCC25922, Escherichia coli strain ATCC25922, microdilution; read-out: E. coli ATCC25922 MIC

MIC [µg/mL]	Compound
< 16	CN(C)CCCOc1cccc(-c2cc3cn(-c4ccc(CNCCCNC(=N)N)cc4)c(=O)nc3[nH]2)c1 [Compound 1181]
> 16	N#CCCCOc1cccc(-c2cc3cn(-c4ccc(CN)cc4)c(=O)nc3[nH]2)c1 [Compound 1151]
> 16	NC(=O)COc1cccc(-n2cc3cc(-c4ccc(S(=O)(=O)NC5CCNCC5)cc4)[nH]c3nc2=O)c1 [Compound 1253]
> 16	NCCCNCc1ccc(-c2cn3nc(-c4ccc(F)cc4)[nH]c3nc2=O)cc1 [Compound 662]
> 16	CC(=O)NCCN(C1CCNCC1)S(=O)(=O)c1cccc(-c2cc3cn(-c4ccc(CN)cc4)c(=O)nc3[nH]2)c1 [Compound 1224]
> 16	O=c1nc2[nH]c(-c3ccc(S(=O)(=O)NC4CCNCC4)cc3)cc2cn1-c1ccccc1OCC1CCNCC1 [Compound 1165]
> 16	N=C(N)N[C@@H]1CCN(Cc2ccc(-n3cc4cc[nH]c4nc3=O)cc2)C1 [Compound 1140]
> 16	NCc1ccc(-n2cc3cc(-c4ccc(S(=O)(=O)N(CCCN5CCCCC5)C5CCNCC5)cc4)[nH]c3nc2=O)cc1 [Compound 948]
> 16	NCCCNCc1ccc(-n2cc3cc(CN4CCOC4=O)[nH]c3nc2=O)cc1 [Compound 289]

Compound	MIC [µg/mL]
N=C(N)NCCCN1CC=C(c2cn3cc[nH]c3nc2=O)CC1 [Compound 572]	> 16
NCCCNCc1ccc(-c2cn3cc(-c4ccc(C5=CCNCC5)cc4)[nH]c3nc2=O)cc1 [Compound 649]	< 16
